The values that follow are results of earlier work, collected in US20060068010A1, “Method for improving the bioavailability of orally delivered therapeutics” (priority 2004, published 2006).

Structures can show the parent of a compound that is named as a salt. Where two headings read alike, the source gives them in different places.

The conditions of series [1]: normalized to glycine = 0, most hydrophobic = 100.
The conditions of series [2]: humans.

Take `CN(CCOc1ccc(CC2SC(=O)NC2=O)cc1)c1ccccn1.O=C(O)/C=C\C(=O)O` (racemic) [Rosiglitazone maleate, (±)-5-[[4-[2-(methyl-2-pyridinylamino)ethoxy]phenyl]methyl]-2,4-thiazolidinedione, (Z)-2-butenedioate (1:1)]: the “solubility dependence on pH” value (physiological pH range) is on record as “decreases with increased pH”.

Take `Cc1nccn1CC1CCc2c(c3ccccc3n2C)C1=O` (racemic) [ondansetron, (+/−) 1,2,3,9-tetrahydro-9-methyl-3-[2-methyl-1H-imidazol-1-yl]-4H-carbazol-4-one, monohydrochloride, dehydrate]: the solubility classification entry (base form, at pH greater than 5.0) is listed as “low solubility”. For `C[C@H](N)C(=O)O` [Ala, Alanine], the “Hydrophobicity Index” value is 47 in series [1] (At pH 2) and 41 in series [1] (At pH 7).

Turning to `NC(=O)C[C@H](N)C(=O)O` [Asn, asparagine], the “Hydrophobicity Index” value in series [1] (At pH 2) was −41; in series [1] (At pH 7), −28.

`CC(C)NCC(O)COc1ccc(CC(N)=O)cc1` (stereo not drawn) [Atenolol, benzeneacetamide, 4-[2′-hydroxy-3′-[(1-methylethyl)amino]propoxy]-]: the “fraction of an oral dose absorbed from the gastrointestinal tract” value in series [2] is reported as “about 50%”. Take `N[C@@H](CS)C(=O)O` [Cys, cysteine]: the results for the “Hydrophobicity Index” value in series [1] (At pH 2) and in series [1] (At pH 7) were 52 and 49, respectively. Regarding `N[C@@H](Cc1c[nH]cn1)C(=O)O` [His, histidine], the “Hydrophobicity Index” value in series [1] (At pH 2) is recorded as −42; in series [1] (At pH 7) it was 8.

As to `CC[C@H](C)[C@H](N)C(=O)O` [Ile, isoleucine], the “Hydrophobicity Index” value was 100 in series [1] (At pH 2) and 99 in series [1] (At pH 7).

For `NCCCC[C@H](N)C(=O)O` [Lys, lysine], the “Hydrophobicity Index” value is on record as −37 in series [1] (At pH 2) and −23 in series [1] (At pH 7). Consider `CSCC[C@H](N)C(=O)O` [Met, methionine], for which the “Hydrophobicity Index” value in series [1] (At pH 2) and in series [1] (At pH 7) was 74 each time.

As to `N[C@@H](Cc1ccccc1)C(=O)O` [Phe, phenylalanine], the “Hydrophobicity Index” value in series [1] (At pH 2) is recorded as 92; in series [1] (At pH 7) it was 100. Consider `N[C@@H](Cc1c[nH]c2ccccc12)C(=O)O` [Trp, tryptophan], for which the “Hydrophobicity Index” value is on record as 84 in series [1] (At pH 2) and 97 in series [1] (At pH 7).

For `N[C@@H](Cc1ccc(O)cc1)C(=O)O` [Tyr, tyrosine], the “Hydrophobicity Index” value in series [1] (At pH 2) is listed as 49; in series [1] (At pH 7), 63. Turning to `CC(C)[C@H](N)C(=O)O` [Val, valine], the entries for the “Hydrophobicity Index” value in series [1] (At pH 2) and in series [1] (At pH 7) were 79 and 76, respectively. Regarding `O=C(c1ccc(OCCN2CCCCC2)cc1)c1c(-c2ccc(O)cc2)sc2cc(O)ccc12` [raloxifene hydrochloride, 6-hydroxy-2-(4-hydroxyphenyl)-3-[4-(2-piperidinoethoxy)benzoyl]benzo[p]-thiophene], where the note is “hydrochloride-salt form”, the solubility result was “approximately 0.3 mg/mL” and the solubility classification entry was “very slightly soluble”.
